For data set [1], the system named is Pestalotiopsis theae. The data set is described as follows: Antifungal activity assay, growth inhibition of tea pathogenic fungus. Format: cell-based. The conditions noted are these: for IC50: Pseudopestalotiopsis theae, read-out: ED50, antifungal activity against Pestalotiopsis theae; for fold stronger anti-tea pathogenic fungus effect than hexaconazole: compared to positive control hexaconazole (24.25 ± 1.57 µg/mL). The method, then: Compounds 1 to 11 were evaluated for antifungal activities by a paper disc inhibition assay.
Initial evaluations of the antifungal activity of the purified compounds were conducted against tea pathogenic fungus P. theae in six-well microplates as described by Xia Yan with certain modifications. The final concentrations of each compound in the wells were 80, 40, 20, 10, 5, and 2.5 µg/mL (two-fold dilutions). DMSO and hexaconazole were used as a blank control and positive control, respectively. The ED50 (μg/mL) values were calculated statistically using Probit analyses.

In data set [2] the test system is zebrafish embryos. The data set is described as follows: Zebrafish embryotoxicity and developmental toxicity assay. Type of data set: in vivo. The conditions noted are these: for change of effect on zebrafish embryo mortality when treatment prolonged to 72 h: 72 h versus 24 h (Figure 4b); for effects on mortality rate and malformation of zebrafish: 0.625 μM for 24 h and 10 μM for 72 h (Figure 4c). The method, then:
Figure 4 Embryotoxicity and developmental toxicity assay; 15 zebrafish embryos per condition were exposed to compounds at the concentrations of 10, 5, 2.5, 1.25, and 0.625 μM, and 0.1% DMSO was used as blank control. (a) The mortality rate of 24 embryo treated with compounds; (b) The mortality rate of 72 embryo treated with compounds; (c) The impact on the malformation of zebrafish treated with compounds) The statistics of 24 and 72 h mortality rate; © Morphology of 24 h embryo or 72 h zebrafish larvae treated with compounds or control.
Wild-type (AB strain) zebra fish (Danio rerio) were used in this test. Compounds 5, 6, 8, 9, and 10 were dissolved in DMSO (10 mM) and stored at −20 °C. Toxicity evaluations were analyzed regarding the anti-proliferative effects on embryos according to the literature. In brief, 15 zebrafish embryos per condition were exposed to compounds at the concentrations of 10, 5, 2.5, 1.25, and 0.625 μM, and 0.1% DMSO was used as the vehicle control. A Leica stereomicroscope was used to observe the embryos every 24 h.

The mark [3] stands for this setting: tested at 80, 40, 20, 10, 5 and 2.5 µg/mL, Probit analysis.

These results are taken from paper PMC8955853, “New Sorbicillinoids with Tea Pathogenic Fungus Inhibitory Effect from Marine-Derived Fungus Hypocrea jecorina H8” (Marine Drugs, 2022).

In brackets after ≈: the same amount, converted by molar mass. Entries after “also recorded” stand apart in the source; their conditions may differ. Where two headings read alike, the source gives them in different places.

With `CCC12C(=O)OC(C)(C(=O)C(C)=C1CC(C)=O)C2CC(=O)C=CC=CCO` (stereo not drawn) [Compound 1, trichodermolide C], the IC50 in data set [1] (setting [3]) was above 100 µg/mL.
On the same count and under the same terms, to `Cc1cc(C(=O)CC(O)C(O)C(C)O)c(O)c(C)c1O` (stereo not drawn) [Compound 4, 1-(2,4-dihydroxy-3,5-dimethylphenyl)-3,4,5-trihydroxyhexan-1-one] belongs above 100 µg/mL.
Consider `C/C=C/CCC(=O)c1cc(C)c(O)c(C)c1O` [Compound 6, 2′,3′-dihydrosorbicillin], for which the “change of effect on zebrafish embryo mortality when treatment prolonged to 72 h” value (from here on “change of effect”) in data set [2] was “did not change greatly”. Further, the IC50 in data set [1] (setting [3]) is 2.04 ± 1.24 µg/mL (≈ 8.71 µM).
`C/C=C/C=C/C(=O)c1cc(C)c(O)cc1O` [Compound 7, 6-demethylsorbicillin]: the IC50 in data set [1] (setting [3]) was above 100 µg/mL.
As to `Cc1cc(C(=O)/C=C/C=C/CO)c(O)c(C)c1O` [Compound 9, (2E,4E)-1-(2,4-dihydroxy-3,5-dimethylphenyl)-6-hydroxyhexa-2,4-dien-1-one], the “change of effect” value in data set [2] is “did not change greatly”. The IC50 in data set [1] (setting [3]) was 1.83 ± 1.37 µg/mL (≈ 7.37 µM). Moreover, the “fold stronger anti-tea pathogenic fungus effect than hexaconazole” value in data set [1] turned out to be 13 fold.
Turning to `C/C=C/C=C/C(O)=C1\C[C@](C)(O)[C@]2(O)O[C@]3(C)C(O)=C(C)C(=O)/C(=C(O)/C=C/C=C/C)[C@@H]3[C@]2(C)C1=O` [Compound 11, bisvertinol], the IC50 in data set [1] (setting [3]) was above 100 µg/mL.
On to trichodimerol [Compound 10], for which, in data set [2] (10, 5, 2.5, 1.25 and 0.625 μM, observed every 24 h), the “toxicity to zebrafish eggs, embryos or larvae (overall, in words)” value is on record as “low toxicity; also recorded: much lower toxicity”. Also, in data set [2], the “change of effect” value is on record as “did not change greatly”. In addition, in data set [1] (setting [3]), the “ED50, antifungal activity against Pestalotiopsis theae” value is given as 4.68 ± 1.44 µg/mL.
Regarding `CC=CC=CC(O)=C1C(=O)C2(C)C3C(=C(O)CC(O)C=CC)C(=O)C4(C)C1C1(C)OC4(O)C3(C)OC12O` (stereo not drawn) [Compound 3, 7,7′,9′-hydroxy-trichodimerol], the IC50 in data set [1] is above 100 µg/mL.
On to `CC=CC=CC(O)=C1CC(C)(O)C2(O)OC3(C)C(O)=C(C)C(=O)C(=C(O)C=CC=CC)C3C2(C)C1=O` (stereo not drawn) [Compound 5, isobisvertinol A], for which, in data set [2], the “effects on mortality rate and malformation of zebrafish” value is given as “greater effects than other compounds”; the “change of effect” value is given as “did not change greatly”. In data set [1] (setting [3]), the IC50 came out at 9.13 ± 1.25 µg/mL (≈ 18.3 µM). In addition, in data set [1], the “fold stronger anti-tea pathogenic fungus effect than hexaconazole” value is around 3 fold.
Take `CC=CC=CC(O)CC1C2(C)OC(=O)C1(CC)C(CC(C)O)=C(C)C2=O` (stereo not drawn) [Compound 2, trichodermolide D]: in data set [1] (setting [3]), the IC50 was above 100 µg/mL.
Take `CCCCC(O)(Cn1cncn1)c1ccc(Cl)cc1Cl` (stereo not drawn) [hexaconazole, reference compound]: the IC50 in data set [1] (setting [3]) stood at 24.2 ± 1.57 µg/mL (≈ 77.2 µM).
On to `C/C=C/C=C/C(=O)c1cc(C)c(O)c(C)c1O` [Compound 8, sorbicillin], for which the zebrafish embryos killed entry in data set [2] (0.625 μM for 24 h) and in data set [2] (10 μM for 72 h) was “more than 50%” throughout. For the same compound, the “effects on mortality rate and malformation of zebrafish” value in data set [2] is given as “greater effects than other compounds”. For the same compound, in data set [2] (0.625 μM, 72 h (Figure 4b)), the “mortality rate of zebrafish embryo” value is listed as around 60%. Also, the IC50 in data set [1] (setting [3]) is 18.2 ± 1.29 µg/mL (≈ 78.4 µM).
